Values of other authors, collected in article PMC8960621, “Solution speciation and human serum protein binding of indium(III) complexes of 8-hydroxyquinoline, deferiprone and maltol” (Journal of Biological Inorganic Chemistry, 2022).

Molecular target: T1, apo-transferrin (apoTf) (Homo sapiens, UniProt P02787)
T1 construct: purchased Sigma-Aldrich T2036
Conditions: similar conditions; cited from earlier work

T1 sequence (P02787 20-698): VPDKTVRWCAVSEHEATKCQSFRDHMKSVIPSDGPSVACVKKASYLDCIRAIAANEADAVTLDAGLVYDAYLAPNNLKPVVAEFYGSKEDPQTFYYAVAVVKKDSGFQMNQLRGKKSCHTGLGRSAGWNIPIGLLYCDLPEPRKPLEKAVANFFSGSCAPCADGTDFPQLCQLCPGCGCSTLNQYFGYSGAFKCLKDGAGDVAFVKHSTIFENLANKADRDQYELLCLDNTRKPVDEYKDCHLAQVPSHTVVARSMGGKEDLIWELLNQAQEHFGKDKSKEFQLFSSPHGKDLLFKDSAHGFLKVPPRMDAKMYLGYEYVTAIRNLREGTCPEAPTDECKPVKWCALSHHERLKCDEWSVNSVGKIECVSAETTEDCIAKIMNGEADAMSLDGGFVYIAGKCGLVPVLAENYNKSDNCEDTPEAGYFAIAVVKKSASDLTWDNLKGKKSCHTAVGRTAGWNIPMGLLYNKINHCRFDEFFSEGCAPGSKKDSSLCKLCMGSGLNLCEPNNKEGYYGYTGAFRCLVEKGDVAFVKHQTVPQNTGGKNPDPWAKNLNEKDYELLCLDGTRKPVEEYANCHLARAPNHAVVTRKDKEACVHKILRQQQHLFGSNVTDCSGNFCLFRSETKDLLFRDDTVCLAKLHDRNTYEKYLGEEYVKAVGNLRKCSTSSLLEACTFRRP

[Ga+3].[O-]c1cccc2cccnc12.[O-]c1cccc2cccnc12.[O-]c1cccc2cccnc12 [GaQ3, Tris(8-Quinolinolato)gallium(III), reference compound]
time of interaction with apoTf: ≤ 1 h
